According to patent US20250099466A1 (BRISTOL-MYERS SQUIBB COMPANY, priority 2021, published 2025):
Oligonucleotides are written 5' to 3', each unit as a sugar letter and its base; * is a phosphorothioate linkage, no mark a phosphodiester; rarer units and linkages stand in square brackets, end groups in braces. Plain capitals give the bases only. e = 2'-O-(2-methoxyethyl) (MOE); [5mC] = 5-methylcytosine; d = 2'-deoxy (DNA)

Test system: electrically induced carotid artery thrombosis (ECAT) in rabbits; rabbit FXI mRNA
Experiment: Rabbit ECAT model after FXI antisense oligonucleotide treatment
Assay type: in vivo
Conditions: subcutaneous twice weekly for 4 weeks
Experimental: The rabbit ECAT model, described by Wong et al. was used in the rabbit ECAT study (Wang et al. J. Pharmacol. Exp. Ther. 295:212-8, 2002). The ECAT model was conducted 3 to 4 days after the last dose of vehicle, FXI-ASO2, or FXI-ASO1. FXI-ASO1 has the nominal nucleotide sequence of […] (SEQ ID NO: 1) and is complementary to a sequence within rabbit FXI mRNA. FXI-ASO2 (control ASO) has the nominal nucleotide sequence of […] (SEQ ID NO: 2) and has no known complementary sequence in rabbit mRNA. Oligonucleotides were chemically modified with phosphorothioate in the backbone and 2′-O-methoxyethyl on the wings with a central deoxy gap (so-called 5-10-5 design). Cytosine bases were rendered as 5-methylcytosine.
Separate samples for each dose of FXI-ASO1 and FXI-ASO2 were weighed on an analytical balance. […]
Male New Zealand White rabbits were anesthetized with ketamine (50 mg/kg+50 mg/kg/h intramuscularly) and xylazine (10 mg/kg+10 mg/kg/h intramuscularly). […] Carotid blood flow was measured with an electromagnetic flow probe continuously beginning 30 min before the electrical stimulation and over a 90-min period after stimulation to monitor thrombosis-induced occlusion. Integrated carotid blood flow, as a percentage of pre-electrical stimulation control period, was measured by the area under the flow-time curve. […]

Q: For “FXI-ASO2: control ASO CCTTCCCTGAAGGTTCCTCC (SEQ ID NO: 2), no known complementary sequence in rabbit mRNA (e[5mC]*e[5mC]*eT*eT*e[5mC]*d[5mC]*d[5mC]*dT*dG*dA*dA*dG*dG*dT*dT*e[5mC]*e[5mC]*eT*e[5mC]*e[5mC])”, which thrombus weight is on record?
A: did not reduce thrombus weight
